Earlier results on one compound are cited in patent publication US9018175B2 (Takeda GmbH, priority 2009, dated 2015).

The subject of data set [1] is bleomycin-induced pulmonary fibrosis and pulmonary hypertension. The following applies: through inhibition of ROS generation and RhoA/Rho kinase activation (Hemnes et al. 2008); cited from earlier work.
Data set [2] has as its system patients with pulmonary fibrosis. The settings on record: open-label trials (Ghofrani 2002; Collard 2007); cited from earlier work.

Turning to `CCCc1nn(C)c2c(=O)[nH]c(-c3cc(S(=O)(=O)N4CCN(C)CC4)ccc3OCC)nc12` [sildenafil], in data set [1], the “bleomycin-induced pulmonary fibrosis and pulmonary hypertension” value is “attenuates bleomycin-induced pulmonary fibrosis and pulmonary hypertension”. For the same compound, in data set [2], the exercise tolerance result is “increases exercise tolerance”; the “lung hemodynamic (vascular resistance and ventilation/perfusion matching)” value is “improves lung hemodynamic”.
